Reference: patent US20200024278A1, “COMPOSITION COMPRISING ANTIBIOTIC COMPOUND AND AN HETEROCYCLIC COMPOUND AND THEIR USE IN PREVENTING OR TREATING BACTERIAL INFECTIONS” (MUTABILIS, priority 2016, published 2020)

Key:
Assay in all cases: MIC, broth microdilution (CLSI), substance alone or ATB combined with compound at 4 or 8 μg/mL
PAE UFR90 = type: cell-based, P. aeruginosa; conditions: PAE UFR90; for MIC ATB combined with Example: Example @8 μg/ml; for MIC ATB combined with Example compound: compound @8 μg/ml
Procedure, shortened: (§1)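 CLSI M7-A7 broth microdilution. ca-MHB, 5·10^5 CFU/mL log-phase cells, 16-20 h, 35° C, ambient air. Fosfomycin wells + 25 μg/ml glucose-6-phosphate. Visual MIC read.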

PAE 105250 = type: cell-based, P. aeruginosa; conditions: PAE 105250; for MIC ATB combined with Example: Example @8 μg/ml; for MIC ATB combined with Example compound: compound @8 μg/ml
Procedure, shortened: as §1

PAE UFR48 = type: cell-based, P. aeruginosa; conditions: PAE UFR48; for MIC ATB combined with Example: Example @8 μg/ml; for MIC ATB combined with Example compound: compound @8 μg/ml
Procedure, shortened: as §1

ECL P99 = type: cell-based, E. cloacae; conditions: ECL P99; for MIC ATB combined with Example: Example @8 μg/ml
Procedure, shortened: as §1

KPN 6299 = type: cell-based, K. pneumoniae; conditions: for MIC ATB combined with Example: Example @8 μg/ml
Procedure, shortened: as §1

KPN BAA-1898 = type: cell-based, K. pneumoniae; conditions: KPN BAA-1898; for MIC ATB combined with Example: Example @8 μg/ml
Procedure, shortened: as §1

KPN UFR42 = type: cell-based, K. pneumoniae; conditions: KPN UFR42; for MIC ATB combined with Example: Example @8 μg/ml; for MIC ATB combined with Example compound: compound @8 μg/ml
Procedure, shortened: as §1

SPN 49619 = type: cell-based, S. pneumoniae; conditions: SPN 49619; for MIC ATB combined with Example: Example @8 μg/ml; for MIC ATB combined with Example compound: compound @8 μg/ml
Procedure, shortened: as §1

ECO UFR39 = type: cell-based, E. coli; conditions: ECO UFR39; for MIC ATB combined with Example: Example @8 μg/ml; for MIC ATB combined with Example compound: compound @8 μg/ml
Procedure, shortened: as §1

ECO 190317 = type: cell-based, E. coli; conditions: ECO 190317; for MIC ATB combined with Example: Example @8 μg/ml
Procedure, shortened: as §1

SAU 29213 = type: cell-based, S. aureus; conditions: for MIC ATB combined with Example / MIC ATB combined with Example compound: SAU 29213; for MIC ATB combined with Example: Example @8 μg/ml; for MIC ATB combined with Example compound: compound @8 μg/ml
Procedure, shortened: as §1

[1] = Escherichia coli, substance alone, read-out: MIC

MIC ATB combined with Example (PAE UFR90; ATB ATM): 16 µg/mL
MIC ATB combined with Example (PAE UFR90; ATB FEP): 4 µg/mL
MIC ATB combined with Example (PAE UFR90; ATB FOS): 8 µg/mL
MIC ATB combined with Example (PAE UFR90; ATB MEM): 2 µg/mL
MIC ATB combined with Example (PAE UFR90; ATB PIP): >32 µg/mL
MIC ATB combined with Example compound (PAE UFR90; MIC of CIP): 1 µg/mL
MIC ATB combined with Example compound (PAE UFR90; MIC of CPO): 8 µg/mL
MIC ATB combined with Example (PAE 105250; ATB ATM): 8 µg/mL
MIC ATB combined with Example (PAE 105250; ATB FEP): 4 µg/mL
MIC ATB combined with Example (PAE 105250; ATB FOS): >128 µg/mL
MIC ATB combined with Example (PAE 105250; ATB MEM): 2 µg/mL
MIC ATB combined with Example (PAE 105250; ATB PIP): 32 µg/mL
MIC ATB combined with Example compound (PAE 105250; MIC of CIP): 0.125 µg/mL
MIC ATB combined with Example compound (PAE 105250; MIC of CPO): 8 µg/mL
MIC ATB combined with Example (PAE UFR48; ATB ATM): 8 µg/mL
MIC ATB combined with Example (PAE UFR48; ATB FEP): 16 µg/mL
MIC ATB combined with Example (PAE UFR48; ATB FOS): 32 µg/mL
MIC ATB combined with Example (PAE UFR48; ATB MEM): 0.25 µg/mL
MIC ATB combined with Example (PAE UFR48; ATB PIP): 16 µg/mL
MIC ATB combined with Example compound (PAE UFR48; MIC of CIP): 4 µg/mL
MIC ATB combined with Example compound (PAE UFR48; MIC of CPO): >32 µg/mL
MIC ATB combined with Example (ECL P99; ATB ATM): <0.031 µg/mL
MIC ATB combined with Example (ECL P99; ATB FEP): <0.031 µg/mL
MIC ATB combined with Example (ECL P99; ATB FOS): <0.125 µg/mL
MIC ATB combined with Example (ECL P99; ATB MEM): <0.031 µg/mL
MIC ATB combined with Example (ECL P99; ATB PIP): <0.031 µg/mL
MIC (ECL P99; Enterobacter cloacae, substance alone, read-out: MIC): 4 µg/mL
MIC ATB combined with Example compound (ECL P99; MIC of CIP, compound @8 μg/ml): <0.031 µg/mL
MIC ATB combined with Example (KPN 6299; ATB ATM): <0.031 µg/mL
MIC ATB combined with Example (KPN 6299; ATB FEP): <0.031 µg/mL
MIC ATB combined with Example (KPN 6299; ATB FOS): <0.125 µg/mL
MIC ATB combined with Example (KPN 6299; ATB MEM): <0.031 µg/mL
MIC ATB combined with Example (KPN 6299; ATB PIP): <0.031 µg/mL
MIC ATB combined with Example compound (KPN 6299; MIC of CIP, compound @8 μg/ml): <0.031 µg/mL
MIC ATB combined with Example (KPN BAA-1898; ATB ATM): <0.031 µg/mL
MIC ATB combined with Example (KPN BAA-1898; ATB FEP): <0.031 µg/mL
MIC ATB combined with Example (KPN BAA-1898; ATB FOS): <0.125 µg/mL
MIC ATB combined with Example (KPN BAA-1898; ATB MEM): <0.031 µg/mL
MIC ATB combined with Example (KPN BAA-1898; ATB PIP): <0.031 µg/mL
MIC (KPN BAA-1898; Klebsiella pneumoniae, BAA1898, substance alone, read-out: MIC): 4 µg/mL
MIC ATB combined with Example compound (KPN BAA-1898; MIC of CIP, compound @8 μg/ml): <0.031 µg/mL
MIC ATB combined with Example (KPN UFR42; ATB ATM): <0.031 µg/mL
MIC ATB combined with Example (KPN UFR42; ATB FEP): <0.031 µg/mL
MIC ATB combined with Example (KPN UFR42; ATB FOS): <0.125 µg/mL
MIC ATB combined with Example (KPN UFR42; ATB MEM): <0.031 µg/mL
MIC ATB combined with Example (KPN UFR42; ATB PIP): <0.031 µg/mL
MIC (KPN UFR42; Klebsiella pneumoniae, substance alone, read-out: MIC): 8 µg/mL
MIC ATB combined with Example compound (KPN UFR42; MIC of CIP): <0.031 µg/mL
MIC ATB combined with Example compound (KPN UFR42; MIC of CPO): <0.031 µg/mL
MIC ATB combined with Example (SPN 49619; ATB ATM): <0.031 µg/mL
MIC ATB combined with Example (SPN 49619; ATB FEP): <=0.031 μg/mL
MIC ATB combined with Example (SPN 49619; ATB FOS): 0.5 µg/mL
MIC ATB combined with Example (SPN 49619; ATB MEM): <0.031 µg/mL
MIC ATB combined with Example (SPN 49619; ATB PIP): 0.063 µg/mL
MIC ATB combined with Example compound (SPN 49619; MIC of CIP): 0.031 µg/mL
MIC ATB combined with Example compound (SPN 49619; MIC of CLI): <0.0010 µg/mL
MIC ATB combined with Example compound (SPN 49619; MIC of CPO): <0.031 µg/mL
MIC ATB combined with Example compound (SPN 49619; MIC of DAP): <=0.0020 μg/mL
MIC ATB combined with Example compound (SPN 49619; MIC of ERY): <0.0020 µg/mL
MIC ATB combined with Example compound (SPN 49619; MIC of LZD): <0.0078 µg/mL
MIC ATB combined with Example compound (SPN 49619; MIC of RIF): <=0.00012 μg/mL
MIC ATB combined with Example compound (SPN 49619; MIC of SYN): <=0.0020 μg/mL
MIC ATB combined with Example compound (SPN 49619; MIC of VAN): <0.0039 µg/mL
MIC (SPN 49619; Streptococcus pneumoniae, substance alone, read-out: MIC): 8 µg/mL
MIC ATB combined with Example (ECO UFR39; ATB ATM): <0.031 µg/mL
MIC ATB combined with Example (ECO UFR39; ATB FEP): <0.031 µg/mL
MIC ATB combined with Example (ECO UFR39; ATB FOS): <0.125 µg/mL
MIC ATB combined with Example (ECO UFR39; ATB MEM): <0.031 µg/mL
MIC ATB combined with Example (ECO UFR39; ATB PIP): <0.031 µg/mL
MIC (ECO UFR39; [1]): 2 µg/mL
MIC ATB combined with Example compound (ECO UFR39; MIC of CIP): <0.031 µg/mL
MIC ATB combined with Example compound (ECO UFR39; MIC of CPO): <0.031 µg/mL
MIC ATB combined with Example (ECO 190317; ATB ATM): <0.031 µg/mL
MIC ATB combined with Example (ECO 190317; ATB FEP): <0.031 µg/mL
MIC ATB combined with Example (ECO 190317; ATB FOS): <0.125 µg/mL
MIC ATB combined with Example (ECO 190317; ATB MEM): <0.031 µg/mL
MIC ATB combined with Example (ECO 190317; ATB PIP): <0.031 µg/mL
MIC (ECO 190317; [1]): 1 µg/mL
MIC ATB combined with Example compound (ECO 190317; MIC of CIP, compound @8 μg/ml): <0.031 µg/mL
MIC ATB combined with Example (SAU 29213; ATB ATM): <0.031 µg/mL
MIC ATB combined with Example (SAU 29213; ATB FEP): <0.031 µg/mL
MIC ATB combined with Example (SAU 29213; ATB FOS): <0.125 µg/mL
MIC ATB combined with Example (SAU 29213; ATB MEM): <0.031 µg/mL
MIC ATB combined with Example (SAU 29213; ATB PIP): <0.031 µg/mL
MIC ATB combined with Example compound (SAU 29213; MIC of CIP): <0.031 µg/mL
MIC ATB combined with Example compound (SAU 29213; MIC of CLI): <0.0010 µg/mL
MIC ATB combined with Example compound (SAU 29213; MIC of CPO): <0.031 µg/mL
MIC ATB combined with Example compound (SAU 29213; MIC of DAP): <0.0020 µg/mL
MIC ATB combined with Example compound (SAU 29213; MIC of ERY): <0.0020 µg/mL
MIC ATB combined with Example compound (SAU 29213; MIC of LZD): <0.0078 µg/mL
MIC ATB combined with Example compound (SAU 29213; MIC of RIF): <0.00012 µg/mL
MIC ATB combined with Example compound (SAU 29213; MIC of SYN): <0.0020 µg/mL
MIC ATB combined with Example compound (SAU 29213; MIC of VAN): <0.0039 µg/mL
MIC (SAU 29213; Staphylococcus aureus, substance alone, SAU 29213 (MSSA 29213), read-out: MIC): 4 µg/mL
Compound: O=C1N2CC(n3cncn3)=CC(C2)N1OS(=O)(=O)[O-].[Na+] (stereo not shown) [Example 14, sodium [7-oxo-3-(1,2,4-triazol-1-yl)-1,6-diazabicyclo[3.2.1]oct-3-en-6-yl] sulfate]
